Results on 8 compounds are retold here after patent US5130302A, “Boronated nucleoside, nucleotide and oligonucleotide compounds, compositions and methods for using same” (Boron Bilogicals, Inc., priority 1989, dated 1992).

Each structure is given as a SMILES string. Converted amounts (≈) assume the structure as drawn. Where two headings read alike, the source gives them in different places.

In data set [1] the test system is SW480 human colorectal carcinoma. The experiment in a line: Cytotoxicity, colon adenocarcinoma SW480 human colorectal carcinoma. The format is cell-based. On the procedure:
(§1) More specifically, the cytotoxic activity of the boron adducts of the present invention was tested on the following neoplastic cell lines:
3. Colon adenocarcinoma SW480 human colorectal carcinoma. A. Leibovitz et al., Cancer Res. 36, 4562 (1976) (grown in L15+10% FBS).
(§2) The cytotoxic screens were conducted according to NIH protocols, see E. Huang et al., J. Pharm. Sci. 61, 108 (1972), with 10^4 cells, growth medium, antibiotics and drugs from 0.5 to 100 μg/ml final concentration. For the L1210, Hela-S, amd Tmolt, (i.e. the suspended cells), the incubations were conducted in sterile test tubes in a final volume of 1 ml for 72 hr at 37° C. in a CO2 incubator. The cells on the third day were still in log growth phase. The number of cells/ml are determined using trypan blue exclusion and a hemocytometer. See, e.g., R. Geran, supra. For solid tumors there is plated out in wells 1×10^4 cells with 1 ml of medium+antibiotics and the other components of growth. When the controls have converged (≈95%) then the density of the cells is estimated and the ED50 values calculated.

Data set [2] has as its system KB epidermoid oral nesopharnyx. The data set can be described thus: Cytotoxicity, KB epidermoid oral nasopharynx. As to conditions: Homo sapiens, read-out: ED50 (cytotoxicity), KB. The class given is cell-based. On the procedure: 6. KB epidermoid oral nesopharnyx. R. Geran, supra: H. Eagle, Proc. Soc. Expt.
Biol. 89, 362 (1955)(grown in EMEM +5% calf serum).
as §2

Data set [3] has as its system Human Osteosarcoma TE418. The data set can be described thus: Cytotoxicity, human osteosarcoma TE418. The note with it: read-out: ED50 (cytotoxicity), Osteo sarcoma. The format is cell-based. As to the method: 5. Human Osteosarcoma TE418. H. Smith et al., Int. J. Cancer 17, 219 (1976) (grown in DMEM+10% FBS).
as §2

For data set [4], the system named is Tmolt acute lymphoblastic T cell leukemia. The data set can be described thus: Cytotoxicity, Tmolt acute lymphoblastic T cell leukemia. As to conditions: T-cell, read-out: ED50 (cytotoxicity), Tmolt. The format is cell-based. As to the method:
as §1
2. Tmolt^S acute lymphoblastic T cell leukemia, S. Schreiber and N. Ikemoto, Tett. Lett 29, 3211 (1988) (grown in RPMI - 1640+10% FBS).
as §2

The subject of data set [5] is Hela-S. The experiment in a line: Cytotoxicity, Hela-S cervical carcinoma suspended. The format is cell-based. The note with it: Homo sapiens, read-out: ED50 (cytotoxicity), Hela-S. As to the method: 7. Hela-S, ATCC-CCL 2.2, cervical carcinoma suspended, S. Schreiber and N. Ikemoto, supra; T. Puck et al., J. Exp. Med. 103. 273 (1956) (grown in Joklik+5% FBS, Ham's F12 +5% FBS).
as §2

For data set [6], the system named is Human glioma cell EH 118 MG. The data set can be described thus: Cytotoxicity, human glioma cell EH 118 MG. As to conditions: read-out: ED50 (cytotoxicity), Glioma. The class given is cell-based. As to the method:
9. Human glioma cell EH 118 MG transformed stain of Rous sarcoma virus, J. Lutton et al., J. Biol. Chem. 254, 11181 (1979) (grown in DMEM-H+10% FCS).
as §2

For data set [7], the system named is Lung bronchogenic MB-9812. The data set can be described thus: Cytotoxicity, lung bronchogenic MB-9812. The format is cell-based. As to conditions: read-out: ED50 (cytotoxicity), Lung Bronchogenic. As to the method: 4. Lung bronchogenic MB-9812, S. Aronson et al., Expt. Cell Res. 61, 1 (1970) (grown in EMEM+10% FBS+NEAA).
as §2

Data set [8] deals with L1210 lymphoid leukemia cells. The experiment in a line: Cytotoxicity, L1210 lymphoid leukemia cells. The format is cell-based. The note with it: Mus musculus, read-out: ED50 (cytotoxicity), L1210. On the procedure: as §1
1. L1210 lymphoid leukemia cells, R. Geran et al., Cancer Chemotherapy Reports 3, 7 (1972).(grown in RPMI+15% FBS+antibiotics).
as §2

Data set [9] concerns inflammatory response. The data set can be described thus: Anti-inflammatory activity, carrageenan-injected hind foot. The format is in vivo, CF1 male mice. The note with it: mice. On the procedure: CF1 male mice (~25 g) were administered test drugs at 5-40 mg/kg in 0.05% Tween 80--H2 O intraperitoneally 3 hours prior to and 30 minutes prior to the injection of 0.2 ml of 1% carrageenan in 0.9% saline into the plantar surface of the right hind foot. Saline was injected into the left hind foot, which serves as a base line. After 3 hours, both feet were excised at the tibiotarsal (ankle) joint according to standard procedures. See C. Winter et al., Proc. Soc. Expt. Biol Med. 544, 111 (1962); A. Roszkawski et al., J. Pharm. Exp. Ther. 179, 114 (1971). Control mice afforded a 78±3 mg increase in paw weight.

In data set [10] the test system is serum cholesterol levels. The experiment in a line: Antihyperlipidemic activity, serum cholesterol. The class given is in vivo, male CF1 mice. As to conditions: mice. As to the method:
(§3) Compounds to be tested were suspended in 1% aqueous carboxymethylcellulose,homogenized and administered to male CF1 mice (25 g) intraperitoneally for 16d. On days 9 and 16, blood was obtained by tail vein bleeding, and the serum was separated by centrifugation for three minutes. The serum cholesterol levels were determined by a modification of the Liebermann--Burchard reaction in accordance with known techniques. See A. Ness, et al., Clin. Chim. Acta 10, 229 (1964). Serum triglyceride levels were determined with a commercial kit, the Fisher Hycel Triglyceride Test Kit, for a different group of animals bled on day 16.

Data set [11] deals with Serum triglyceride levels. The experiment in a line: Antihyperlipidemic activity, serum triglyceride. The class given is in vivo, male CF1 mice. As to conditions: mice. As to the method:
as §3

Data set [12] concerns P388. The experiment in a line: Cytotoxicity, P388. The format is cell-based. As to the method:
as §2

Data set [13] in a line: Stability in aqueous medium by HPLC. The class given is physicochemical. As to the method:
By HPLC, compounds 3a, 3b, and 3d in aqueous medium (0.01 M TEAAc) are >94% stable over a period of 168 h. […], however, is >50% decomposed during this period.

Where [14] appears, read: Homo sapiens, SW480, read-out: ED50 (cytotoxicity), Adeno Carcinoma SW480.
Setting [15] is: Mus musculus, P388, read-out: ED50 (cytotoxicity), P388.
The mark [16] stands for this setting: Mus musculus, P388; read-out: ED50 (cytotoxicity), P388.

Take `CC(C)[Si](OC[C@H]1O[C@@H](n2ccc(N)[n+]([BH2-]C#N)c2=O)C[C@@H]1O)(C(C)C)C(C)C` [Compound 4]: the IC50 in data set [1] (setting [14]) came out at 2.71 µg/mL (≈ 6.42 µM); in [2], 4.07 µg/mL (≈ 9.64 µM); in [3], 6.62 µg/mL (≈ 15.7 µM); in data set [4] (72 h) it was 2.34 µg/mL (≈ 5.54 µM); in data set [5] (HeLa, 72 h), 3.63 µg/mL (≈ 8.59 µM); in [6], 3.43 µg/mL (≈ 8.12 µM). The IC50 was 5.58 µg/mL (≈ 13.2 µM) in data set [7] and 2.92 µg/mL (≈ 6.91 µM) in [8] (L1210, 72 h).

For `CCCCC1C(=O)N(c2ccccc2)N(c2ccccc2)C1=O` [phenylbutazone, reference compound], the “Antiinflammatory Activity, % inhibition (Standard)” value in data set [9] (standard, column head 8 mg/kg/day) was determined as 47%.

Regarding `CCOC(=O)C(C)(C)Oc1ccc(Cl)cc1` [clofibrate, reference compound], in data set [10] (130 mg/kg/day), the “Hypolipidemic: Cholesterol Inhibition, % inhibition (Standard)” value is given as 13%. Besides, in data set [11] (standard (clofibrate at 130 mg/kg/day)), the “Hypolipidemic: Triglyceride Inhibition, % inhibition (Standard)” value is 25%.

Take `CC(C)[Si](OC[C@H]1O[C@@H](n2c[n+]([BH2-]C#N)c3c(=O)[nH]cnc32)C[C@@H]1O[Si](C(C)C)(C(C)C)C(C)C)(C(C)C)C(C)C` [Compound 2b, 3', 5-O-Bis(triisopropylislyl)-2'-deoxyinosine-N7-cyanoborane]: the IC50 in [1] (setting [14]) came out at 2.57 µg/mL (≈ 4.26 µM); in data set [2], 5.29 µg/mL (≈ 8.76 µM); in data set [4] (72 h) it was 6.49 µg/mL (≈ 10.7 µM); in [5] (HeLa, 72 h), 3.26 µg/mL (≈ 5.4 µM); in [6], 6.21 µg/mL (≈ 10.3 µM); in [7] it was 6.2 µg/mL (≈ 10.3 µM). Further, the IC50 in data set [8] (L1210, 72 h) was determined as 4 µg/mL (≈ 6.63 µM); in data set [12] (setting [15]) it was 7.31 µg/mL (≈ 12.1 µM).

Consider `CC(C)[Si](OC[C@H]1O[C@@H](n2cnc3c(N)[n+]([BH2-]C#N)cnc32)C[C@@H]1O[Si](C(C)C)(C(C)C)C(C)C)(C(C)C)C(C)C` [Compound 2c, 3', 5'-O-Bis(triisopropylsilyl)-2'-deoxyadenosine-N1-cyanoborane], for which the IC50 in [1] (setting [14]) stood at 2.87 µg/mL (≈ 4.76 µM); in [2], 5.79 µg/mL (≈ 9.61 µM); in [4] (72 h), 1.88 µg/mL (≈ 3.12 µM); in [5] (HeLa, 72 h), 3.42 µg/mL (≈ 5.67 µM); in data set [6], 4.99 µg/mL (≈ 8.28 µM); in data set [7], 5.58 µg/mL (≈ 9.26 µM). In addition, the IC50 in data set [8] (L1210, 72 h) was 6.86 µg/mL (≈ 11.4 µM); in data set [12] (setting [15]), 7.46 µg/mL (≈ 12.4 µM).

With `CC(C)[Si](OC[C@H]1O[C@@H](n2ccc(N)[n+]([BH2-]C#N)c2=O)C[C@@H]1O[Si](C(C)C)(C(C)C)C(C)C)(C(C)C)C(C)C` [Compound 2d, 3', 5'-O-Bis(triisopropylsilyl)-2'-deoxycytidine-N3-cyanoborane], the IC50 amounted to 2.73 µg/mL (≈ 4.72 µM) in [1] (Homo sapiens, SW480; read-out: ED50 (cytotoxicity), Adeno Carcinoma SW480); 5.72 µg/mL (≈ 9.88 µM) in [2]; 3.36 µg/mL (≈ 5.81 µM) in data set [4] (Tmolt, 72 hr at 37° C.); 2.94 µg/mL (≈ 5.08 µM) in [5] (Hela-S, 72 hr at 37° C.); 6.77 µg/mL (≈ 11.7 µM) in data set [6] (Glioma EH 118 MG); 6.6 µg/mL (≈ 11.4 µM) in [7] (Lung bronchogenic MB-9812). In addition, the IC50 in data set [8] (L1210, 72 hr at 37° C.) was 4.78 µg/mL (≈ 8.26 µM); in [12] (setting [16]), 7.26 µg/mL (≈ 12.5 µM).

Consider `CC(C)[Si](OC[C@H]1O[C@@H](n2c[n+]([BH2-]C#N)c3c(=O)[nH]c(N)nc32)C[C@@H]1O[Si](C(C)C)(C(C)C)C(C)C)(C(C)C)C(C)C` [Compound 2a, 3',5'-O-Bis(triisopropylsilyl)-2'-deoxyguanosine N7-cyanoborane], for which the IC50 in [1] (setting [14]) was 2.67 µg/mL (≈ 4.31 µM); in [2], 2.67 µg/mL (≈ 4.31 µM); in [3], 7.2 µg/mL (≈ 11.6 µM); in data set [4] (72 h), 2.26 µg/mL (≈ 3.65 µM); in data set [5] (HeLa, 72 h), 2.83 µg/mL (≈ 4.57 µM); in data set [6] it was 7.61 µg/mL (≈ 12.3 µM). Besides, the IC50 is 4.05 µg/mL (≈ 6.55 µM) in data set [7]; 6.05 µg/mL (≈ 9.78 µM) in [8] (L1210, 72 h); 5.13 µg/mL (≈ 8.29 µM) in [12] (setting [15]).

With `N#C[BH2-][n+]1cn([C@H]2C[C@H](O)[C@@H](CO)O2)c2nc(N)[nH]c(=O)c21` [Compound 3a, 2'-Deoxyguanosine-N7-cyanoborane], the “Hypolipidemic: Cholesterol Inhibition, % inhibition” value in data set [10] (8 mg/kg/day, intraperitoneal for 16d) is 44%. Also, in data set [9] (8 mg/kg/day, intraperitoneal, 3 hours and 30 minutes prior to carrageenan), the “Antiinflammatory Activity, % inhibition” value is 22%. In addition, the IC50 was 5.08 µg/mL (≈ 16.6 µM) in data set [8] (L1210, 72 hr at 37° C.) and 5.87 µg/mL (≈ 19.2 µM) in data set [12] (setting [16]). For the same compound, the “Hypolipidemic: Triglyceride Inhibition, % inhibition” value in data set [11] (8 mg/kg/day, intraperitoneal, bled on day 16) is given as 37%. Also, the remaining at 168 h in data set [13] (0.01 M TEAAc, period of 168 h, HPLC, read-out: stable in aqueous medium) was more than 94%. The “stability in aqueous medium” value in data set [13] (in words, aqueous medium) is “good stability”.
